The values below come from patent US8895572B2, “Fused heterocyclic indane carboxamide CGRP receptor antagonists” (Merck Sharp & Dohme Corp., priority 2010, dated 2014).

Structures are written as SMILES.

The target of this test is T1, recombinant human CL receptor/RAMP1 (Homo sapiens, UniProt O60894+Q16602).
T1 construct: expressed in transfected cells; membranes used
T1 sequence (Q16602 23-461): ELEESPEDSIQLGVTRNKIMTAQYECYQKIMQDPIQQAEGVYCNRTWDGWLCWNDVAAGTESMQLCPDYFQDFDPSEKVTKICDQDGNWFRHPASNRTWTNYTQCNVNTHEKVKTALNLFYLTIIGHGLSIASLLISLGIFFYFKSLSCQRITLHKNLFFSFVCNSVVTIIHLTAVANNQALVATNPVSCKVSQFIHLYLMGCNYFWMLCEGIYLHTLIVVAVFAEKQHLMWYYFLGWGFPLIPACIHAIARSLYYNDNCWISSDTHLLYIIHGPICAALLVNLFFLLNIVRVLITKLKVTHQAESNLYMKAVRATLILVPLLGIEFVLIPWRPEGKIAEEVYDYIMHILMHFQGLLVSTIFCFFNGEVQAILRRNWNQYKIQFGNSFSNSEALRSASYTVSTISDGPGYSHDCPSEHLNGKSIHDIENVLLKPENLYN
T1 sequence (O60894 27-148): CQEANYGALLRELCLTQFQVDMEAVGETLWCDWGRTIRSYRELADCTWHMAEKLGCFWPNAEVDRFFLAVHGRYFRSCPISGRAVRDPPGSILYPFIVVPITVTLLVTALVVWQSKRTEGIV
Nature of the test: Recombinant receptor binding assay (125I-hCGRP). As to conditions: membranes of HEK 293 cells expressing human CL receptor/RAMP1, 10 pM 125I-hCGRP, 3 h at room temperature. Here is the method: Human CL receptor (Genbank accession number L76380) was subcloned into the expression vector pIREShyg2 (BD Biosciences Clontech) as a 5′NheI and 3′ PmeI fragment. Human RAMP1 (Genbank accession number AJ001014) was subcloned into the expression vector pIRESpuro2 (BD Biosciences Clontech) as a 5′NheI and 3′NotI fragment. HEK 293 cells (human embryonic kidney cells; ATCC #CRL-1573) were cultured in DMEM with 4.5 g/L glucose, 1 mM sodium pyruvate and 2 mM glutamine supplemented with 10% fetal bovine serum (FBS), 100 units/mL penicillin and 100 μg/mL streptomycin, and maintained at 37° C. and 95% humidity. Cells were subcultured by treatment with 0.25% trypsin with 0.1% EDTA in HBSS. Stable cell line generation was accomplished by co-transfecting 10 μg of DNA with 30 μg Lipofectamine 2000 (Invitrogen) in 75 cm^2 flasks. CL receptor and RAMP1 expression constructs were co-transfected in equal amounts. Twenty-four hours after transfection the cells were diluted and selective medium (growth medium+300 μg/mL hygromycin and 1 μg/mL puromycin) was added the following day. A clonal cell line was generated by single cell deposition utilizing a FACS Vantage SE (Becton Dickinson). Growth medium was adjusted to 150 μg/mL hygromycin and 0.5 μg/mL puromycin for cell propagation.
Cells expressing recombinant human CL receptor/RAMP1 were washed with PBS and harvested in harvest buffer containing 50 mM HEPES, 1 mM EDTA and Complete™ protease inhibitors (Roche). The cell suspension was disrupted with a laboratory homogenizer and centrifuged at 48,000 g to isolate membranes. The pellets were resuspended in harvest buffer plus 250 mM sucrose and stored at […]. For binding assays, 20 μg of membranes were incubated in 1 mL binding buffer (10 mM HEPES, pH 7.4, 5 mM MgCl2, and 0.2% BSA) for 3 h at room temperature containing 10 pM ^125I-hCGRP (GE Healthcare) and antagonist. The assay was terminated by filtration through 96-well GFB glass fiber filter plates (PerkinElmer) that had been blocked with 0.05% polyethyleneimine. The filters were washed 3 times with ice-cold assay buffer (10 mM HEPES, pH 7.4, and 5 mM MgCl2). Scintillation fluid was added and the plates were counted on a Topcount (Packard). Non-specific binding was determined and the data analysis was carried out with the apparent dissociation constant (Ki) determined by using a non-linear least squares fitting the bound CPM data to the equation below:
[formula] Where Y is observed CPM bound, Ymax is total bound counts, Ymin is non specific bound counts, (Ymax−Ymin) is specific bound counts, % Imax is the maximum percent inhibition, % 1 min is the minimum percent inhibition, radiolabel is the probe, and the Kd is the apparent dissociation constant for the radioligand for the receptor as determined by hot saturation experiments.
Turning to `C[C@@H]1[C@H](c2ccccc2)C[C@H](NC(=O)c2ccc3c(c2)C[C@@]2(C3)C(=O)Nc3ncccc32)c2ncc(C(C)(C)O)n21` [Example 1.20, (2R)—N-[(5R,6S,8S)-3-(2-Hydroxypropan-2-yl)-5-methyl-6-phenyl-5,6,7,8-tetrahydroimidazo[1,2-a]pyridin-8-yl]-2′-oxo-1,1′,2′,3-tetrahydrospiro[indene-2,3′-pyrrolo[2,3-b]pyridine]-5-carboxamide], the Ki (commonly a measure of affinity in units of concentration, obtained from inhibition or displacement) is 0.27 nM. The same measure for `C[C@@H]1[C@H](c2ccccc2)C[C@H](NC(=O)c2ccc3c(c2)C[C@@]2(C3)C(=O)Nc3ncncc32)c2ncc(C(C)(C)O)n21` [Example 2.1, (2R)—N-[(5R,6S,8S)-3-(2-Hydroxypropan-2-yl)-5-methyl-6-phenyl-5,6,7,8-tetrahydroimidazo[1,2-a]pyridin-8-yl]-6′-oxo-1,3′,6′,7′-tetrahydrospiro[indene-2,5′-pyrrolo[2,3-d]pyrimidine]-5-carboxamide]: 0.19 nM. The same measure for `COC(C)(C)c1cnc2n1C[C@H](c1cccc(F)c1F)C[C@@H]2NC(=O)c1ccc2c(c1)C[C@@]1(C2)C(=O)Nc2ncccc21` [Example 1.8, (2R)—N-[(6S,8S)-6-(2,3-Difluorophenyl)-3-(2-methoxypropan-2-yl)-5,6,7,8-tetrahydroimidazo[1,2-a]pyridin-8-yl]-2′-oxo-1,1′,2′,3-tetrahydrospiro[indene-2,3′-pyrrolo[2,3-b]pyridine]-5-carboxamide]: 0.03 nM; for `C[C@@H]1[C@H](c2ccccc2)C[C@H](NC(=O)c2ccc3c(c2)C[C@@]2(C3)C(=O)Nc3ncccc32)c2nnc(C3(C(F)(F)F)CC3)n21` [Example 1.19, (2R)—N-{(5R,6S,8S)-5-Methyl-6-phenyl-3-[1-(trifluoromethyl)cyclopropyl]-5,6,7,8-tetrahydro[1,2,4]triazolo[4,3-a]pyridin-8-yl}-2′-oxo-1,1′,2′,3-tetrahydrospiro[indene-2,3′-pyrrolo[2,3-b]pyridine]-5-carboxamide]: 0.39 nM. Next, `O=C(N[C@H]1C[C@@H](c2cccc(F)c2F)Cn2c(CC(F)(F)F)nnc21)c1ccc2c(c1)C[C@@]1(C2)C(=O)Nc2ncccc21` [Example 1.14, (2R)—N-[(6S,8S)-6-(2,3-Difluorophenyl)-3-(2,2,2-trifluoroethyl)-5,6,7,8-tetrahydr[1,2,4]triazolo[4,3-a]pyridin-8-yl]-2′-oxo-1,1′,2′,3-tetrahydrospiro[indene-2,3′-pyrrolo[2,3-b]pyridine]-5-carboxamide]: 0.07 nM; `O=C(N[C@H]1C[C@@H](c2cccc(F)c2F)Cn2c(CC(F)(F)F)cnc21)c1ccc2c(c1)C[C@@]1(C2)C(=O)Nc2ncccc21` [Example 1.2, (2R)—N-[(6S,8S)-6-(2,3-Difluorophenyl)-3-(2,2,2-trifluoroethyl)-5,6,7,8-tetrahydroimidazo[1,2-a]pyridin-8-yl]-2′-oxo-1,1′,2′,3-tetrahydrospiro[indene-2,3′-pyrrolo[2,3-b]pyridine]-5-carboxamide]: 0.07 nM.
